Assays:
[1] = tested on: endotoxin/galactosamine-induced hepatitis, increase of liver specific enzymes in the serum; experiment: Endotoxin/galactosamine-induced hepatitis in mice (septic shock model); format: in vivo; details: 10 mg/kg i.p. for each of five applications, 8 hours after endotoxin
Method: As a test model to evaluate the effects of test compounds in septic shock the endotoxin/galactosamine-induced hepatitis in mice has been used. […] The intraperitoneal application of 5-lipoxygenase inhibitors 30 minutes before, simultaneously with and 2, 4 and 6 hours after the application of endotoxin inhibitis the hepatitis-induced increase of the serum activities of these enzymes. On administration of compounds of the formula I in doses of 10 mg/kg for each of the five applications the following percentual inhibitions of the increase of the enzymes GPT and SDH were achieved (the increase of enzymatic activities in control animals was set at 100%): […]

cyclooxygenase = target: T1, cyclooxygenase (Ovis aries, UniProt P05979); experiment: Inhibition of cyclooxygenase in sheep seminal vesicle microsomes ([14C]-arachidonic acid, TLC); format: biochemical; details: pH 7.0, read-out: IC50 for inhibition of cyclooxygenase (B)
T1 construct: suspension of sheep seminal vesicle microsomes; from tissue; host or cells: sheep seminal vesicle microsomes
T1 sequence (P05979 25-600): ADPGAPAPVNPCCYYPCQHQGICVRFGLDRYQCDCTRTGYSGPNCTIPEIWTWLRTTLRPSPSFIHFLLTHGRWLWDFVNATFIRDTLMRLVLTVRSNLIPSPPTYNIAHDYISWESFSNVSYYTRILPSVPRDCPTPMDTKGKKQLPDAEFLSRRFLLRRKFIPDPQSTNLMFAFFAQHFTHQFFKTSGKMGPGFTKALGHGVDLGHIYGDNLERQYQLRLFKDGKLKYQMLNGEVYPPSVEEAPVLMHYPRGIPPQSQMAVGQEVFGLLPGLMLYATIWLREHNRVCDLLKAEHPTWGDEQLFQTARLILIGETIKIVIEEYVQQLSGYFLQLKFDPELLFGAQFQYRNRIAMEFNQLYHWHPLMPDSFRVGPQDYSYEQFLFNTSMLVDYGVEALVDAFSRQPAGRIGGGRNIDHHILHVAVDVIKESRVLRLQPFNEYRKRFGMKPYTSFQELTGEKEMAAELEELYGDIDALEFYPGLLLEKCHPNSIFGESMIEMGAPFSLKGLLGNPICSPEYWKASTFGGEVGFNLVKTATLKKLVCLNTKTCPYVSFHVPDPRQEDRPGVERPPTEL
Method: The effect of the test compounds on the activity of cyclooxygenase was tested using a suspension of sheep seminal vesicle microsomes in 50 mM potassium phosphate buffer of pH 7.0 which was incubated with the solvent only (as control) or with the test compound and [^14 C]-arachidonic acid. The "IC50 -values (B)" (i.e. the concentration of the test compound which causes an 50%-inhibition of the cyclooxygenase) were determined by thin layer chromatography and by means of a TLC-Linear-Analyzer.

5-lipoxygenase = target: T2, 5-lipoxygenase (Rattus norvegicus, UniProt P12527); experiment: Inhibition of 5-lipoxygenase in rat basophilic leukemia cells ([14C]-arachidonic acid, TLC); format: cell-based; details: for IC50: rat basophilic leukemia cells, standardized to nordihydroguaiaretic acid; for Quotient (IC50 cyclooxygenase (B) / 5-lipoxygenase (A)): selectivity
T2 construct: endogenous in cells; host or cells: rat basophilic leukemia cells
T2 sequence (P12527 1-673): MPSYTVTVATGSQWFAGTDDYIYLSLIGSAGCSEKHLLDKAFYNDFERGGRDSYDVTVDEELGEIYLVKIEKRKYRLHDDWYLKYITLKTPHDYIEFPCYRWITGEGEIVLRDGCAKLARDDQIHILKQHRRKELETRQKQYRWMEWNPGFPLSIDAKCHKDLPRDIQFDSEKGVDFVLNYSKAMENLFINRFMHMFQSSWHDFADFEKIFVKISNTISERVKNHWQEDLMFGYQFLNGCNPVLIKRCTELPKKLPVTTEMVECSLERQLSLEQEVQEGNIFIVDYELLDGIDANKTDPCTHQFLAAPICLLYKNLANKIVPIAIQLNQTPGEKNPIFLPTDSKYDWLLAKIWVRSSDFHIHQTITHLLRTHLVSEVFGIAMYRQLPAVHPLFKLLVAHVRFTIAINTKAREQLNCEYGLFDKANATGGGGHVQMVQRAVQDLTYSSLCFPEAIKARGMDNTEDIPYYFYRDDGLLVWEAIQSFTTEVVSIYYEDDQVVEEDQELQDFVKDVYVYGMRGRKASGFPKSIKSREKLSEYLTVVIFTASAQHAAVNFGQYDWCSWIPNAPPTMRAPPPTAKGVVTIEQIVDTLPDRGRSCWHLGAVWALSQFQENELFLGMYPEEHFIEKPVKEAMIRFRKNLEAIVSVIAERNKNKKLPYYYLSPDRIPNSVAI
Method: To 1 ml each of this suspension there was added indomethacin (10 μM) and calcium chlorid (2 mM) and then the mixture was incubated in presence or absence of a test compound for 3 minutes and thereafter with 20 μM of [^14 C]-arachidonic acid and 20 μM of the calcium ionophore A 23 187 for 10 minutes. The reaction was stopped by adding 20 μl of glacial acetic acid and then the mixture was extracted with ethyl acetate to isolate the metabolites of arachidonic acid formed by the enzymatic action of 5-lipoxygenase. These were separated by thin layer chromatography using a solvent mixture known to be suitable for leukotriene analysis [c.f. Jakschik et al., Biochem. Biophys. Res. Commun. 102, 624 (1981)]. The distribution of the radioactivity to the different metabolites was measured using a TLC Linear Analyzer. By bringing into relationship the percentages of the amount of the products formed under the action of 5-lipoxygenase (5-HETE, isomers of LTB4) in the controls (tests performed in absence of test compounds) and in the presence of test compounds of formula I in different concentrations the "IC50 -value" (i.e. the concentration of the test compound which causes an 50%-inhibition of the 5-lipoxygenase) is determined. For standardization these values then were brought into relationship to the IC50 -values determined in the same manner for the standard compound nordihydroguaiaretic acid.

bronchoconstriction = experiment: Antiasthmatic activity: ovalbumin-induced bronchoconstriction in passively sensitized guinea pigs (Konzett-Rössler); format: in vivo; details: 100 mg/kg oral, 0.2 mg/kg i.v. ovalbumin challenge, 10 minutes
Method: The antiasthmatic activity of compounds of formula I was tested in narcotised and ventilated guinea pigs. For the induction of an asthmatic reaction, the animals were passively sensitized by a single intraperitoneal injection of anti-ovalbumin serum. 48 hours afterwards the asthmatic reaction was elicited by intravenous challenge with 0.2 mg/kg ovalbumin. The immediately resulting bronchoconstriction was measured as increase in overflow according to the Konzett-Rbssler method for a period of 10 minutes. Effects caused by histamine, serotonin and sympathic counterreaction were eliminated by intravenous pretreatment with 2.15 mg/kg mepyramine, 46.4 μg/kg propranolol, 4.64 mg/kg atropin and 1 mg/kg methysergide, all given 5 minutes before challenge.
After oral administration of the product of Example 5a or of the product of Example 9, in doses of 100 mg/kg each, the bronchoconstriction was inhibited by 54% or by 67%, respectively.

[2] = tested on: ex vivo iLTB4-formation (5-lipoxygenase activity) in whole blood of rats; experiment: Inhibition of ex vivo iLTB4-formation in rat whole blood after oral administration; parameters: species or system male rats (Wistar strain)
Method: The bioavailability of the compounds of formula I after oral administration was characterized by means of an ex vivo biochemical assessment method described by Tateson et al. in Brit. Pharmacol., 94, 528 (1988).
Compounds of formula I were orally administered to male rats (Wistar strain). 1 hour later the rats were bled by heart puncture in letal CO2 -narcosis. The 5-lipoxygenase reaction was triggered by the addition of the calcium-ionophor A23187 to an end concentration of […] to aliquots of rat whole blood and subsequent incubation for 30 minutes at 37° C. in a water bath. At the end of the incubation the samples were centrifuged to collect the cell free plasma. The concentration of the immunoreactive LTB4 (iLTB4 ng/ml) in each plasma sample was determined by a LTB4 -radioimmunoassay (^3 H-LTB4 -RIA, Amersham) by means of a LTB4 -standard curve in diluted rat plasma. For calculation of the percent inhibition of ex vivo iLTB4 -formation in whole blood of rats treated with the compounds of formula I rats treated with appropiate vehicle solution were included in all experiments, aliquots of their blood were run in parallel and were processed in the same way as described. The mean iLTB4 -formation per ml plasma of these vehicle treated control rats served as 100 percent value of normal control 5-lipoxygenase activity. The percent inhibition of the ex vivo iLTB4 -formation after oral administration of compounds of formula I was calculated as follows: 100 minus 100 times the quotient of the mean iLTB4 concentration per ml plasma of the rats treated with compounds of formula I […] and the mean iLTB4 concentration per ml plasma of the control rats.

Row | Compound | Inhibition of increase of GPT [1] | Inhibition of increase of SDH [1] | IC50 (cyclooxygenase) | IC50 (5-lipoxygenase) | Quotient (IC50 cyclooxygenase (B) / 5-lipoxygenase (A)) (5-lipoxygenase) | inhibition of bronchoconstriction (bronchoconstriction) | inhibition in vivo at 21.5 mg/kg ([2]; Rattus norvegicus, 21.5 mg/kg oral, blood taken 1 hour later) | inhibition of the ex vivo iLTB4-formation ([2]; 10 mg/kg oral)
1 | CC(=O)N(O)Cc1cccc(C#Cc2ccc3ccccc3c2)c1 [Example 1, N-[3-(Naphth-2-yl-ethynyl)-benzyl]-acetohydroxamic acid] | 47% | 58% | > 500000 nM | 670 nM | > 746 |  |  | 
2 | COc1ccc(C#Cc2cccc(C(C)N(O)C(C)=O)c2)cc1 (centres unmarked) [Example 5a] |  |  | 440000 nM | 290 nM | 1517 | 54% | 75% | 
3 | COc1ccc(C#Cc2cccc(C(C)N(O)C(N)=O)c2)cc1 (centres unmarked) [Example 9, N-Hydroxy-N-{1-[3-(4-methoxy-phenylethynyl)-phenyl]-ethyl}-urea] | 94% | 90% | 100000 nM | 150 nM | 667 | 67% |  | 86%

— patent US5202349A, “Substituted phenylacetylenes, pharmaceutical compositions containing these compounds and processes for the preparation of these compounds and compositions” (Gruenenthal GmbH, priority 1990, dated 1993)
